Measurements from PubChem BioAssay AID463204 (Broad Institute, 2010).
The source made the active and inactive calls.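 Rule for the calls: active = AC50 no more than ten times the top concentration tested, that is within one log above it; inconclusive = flat curve fit with activity between 30% and 70%, or invalid poor fit; inactive = AC50 beyond ten times the top tested dose.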

tested on: S. cerevisiae Mot1-301 ts growth rescue, BacTiter-Glo ATP luminescence; assay: restored Mot1-301 yeast growth at 38.5C – whole organism, S. cerevisiae, Mot1-301 ts mutant, luminescence, dose retest, SUMOylation pathway inhibitor project, confirmation (AID 463204);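 note: growth at restrictive 38.5 degrees C of Mot1-301 OY566 strain; actives raise luminescence by restoring growth of the ts mutant at high temperature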

Q: `CCOP(=O)(OCC)c1cc(CC)ccc1O` was tested. Which AC50 did it give?
A: > 42 µM (inactive)

Q: `Cc1cc(C)n(-c2ccc(C(=O)C(C#N)c3nc4ccccc4n3C)cc2)n1` (stereo not given) was tested. Which AC50 did it give?
A: > 42 µM (inactive)

Q: `O=C(CN1CCN(Cc2ccc(F)cc2)CC1)NCc1ccccc1` was tested. Which AC50 did it give?
A: > 42 µM (inactive)

Q: How did the AC50 turn out when `Cc1cc(C)c(OCC(=O)N/N=C/c2ccco2)c(C)c1` was run?
A: > 42 µM (inactive)

Q: With `CCN(CC)C(=O)CSC(Nc1cccc(F)c1)=C(C#N)C#N` as the compound, how does the AC50 read?
A: > 42 µM (inactive)

Q: With `CCOC(=O)N1CCN(C(=O)c2ccc(OC)c(OC)c2)CC1` as the compound, how does the AC50 read?
A: > 42 µM (inactive)

Q: Which AC50 does the source give for `FC(F)(F)c1nc2ccccc2n2c(-c3ccc(Cl)cc3Cl)nnc12` here?
A: > 42 µM (inactive)

Q: For `Cc1cc(C)c2nc(-c3cccnc3)cc(C(=O)Nc3ccc(S(=O)(=O)Nc4onc(C)c4C)cc3)c2c1`, which AC50 is on record?
A: > 42 µM (inactive)

Q: How did the AC50 turn out when `COc1ccccc1N1C(=O)c2ccccc2NC1C(OC)OC` (stereo not given) was run?
A: > 42 µM (inactive)

Q: For `Cc1cc(-c2ccc(C(C)C)c(S(=O)(=O)N3CC(=O)Nc4ccccc43)c2)on1`, which AC50 is on record?
A: > 42 µM (inactive)

Q: Which AC50 does the source give for `Cc1sc2nc(CN3CCCC3)nc(NCc3ccncc3)c2c1C` here?
A: > 42 µM (inactive)

Q: For `CCOC(=O)c1ccc(NC(=O)c2nc[nH]c2C(=O)N2CCc3ccccc3C2)cc1`, which AC50 is on record?
A: > 42 µM (inactive)

Q: For `O=C(O)CN(c1ccccn1)S(=O)(=O)c1ccc(Cl)cc1`, which AC50 is on record?
A: > 42 µM (inactive)

Q: `CCn1c(N2CCN(C(=O)C34CC5CC(CC(C5)C3)C4)CC2)nc2ccccc21` was tested. Which AC50 did it give?
A: > 42 µM (inactive)

Q: With `O=C(CSc1nc(=O)n2ccccc2n1)N1CCN(c2ccccc2)CC1` as the compound, how does the AC50 read?
A: > 42 µM (inactive)

Q: `COc1ccc(-c2csc(NC(=O)CCS(=O)(=O)c3ccccc3)n2)c(OC)c1` was tested. Which AC50 did it give?
A: > 42 µM (inactive)

Q: With `Cc1sc(NC(=O)c2ccc(Br)s2)c(C(N)=O)c1C` as the compound, how does the AC50 read?
A: > 42 µM (inactive)

Q: For `O=C(NNC(=O)c1ccccc1O)c1ccco1`, which AC50 is on record?
A: > 42 µM (inactive)

Q: How did the AC50 turn out when `O=C(COC(=O)c1ccc([N+](=O)[O-])s1)c1ccc[nH]1` was run?
A: 21 µM

Q: `Cc1cc(C)c(NC(=O)CCN2CCN(Cc3ccccc3)CC2)c(C)c1` was tested. Which AC50 did it give?
A: > 42 µM (inactive)

Q: Which AC50 does the source give for `CN1C(=O)C(O)(CC(=O)c2ccccc2O)c2cc(Br)ccc21` (stereo not given) here?
A: > 42 µM (inactive)

Q: How did the AC50 turn out when `C/C(=N\N1CCN(Cc2ccccc2Cl)CC1)c1ccc([N+](=O)[O-])cc1` was run?
A: > 42 µM (inactive)

Q: With `Cn1c(SCC(=O)Nc2ccc(N3CCOCC3)c(Cl)c2)nnc1-c1ccccc1` as the compound, how does the AC50 read?
A: > 42 µM (inactive)

Q: For `CC(=O)c1cc(C)ccc1OC(=O)c1ccco1`, which AC50 is on record?
A: > 42 µM (inactive)

Q: `O=C(COc1cccnc1[N+](=O)[O-])Nc1ccc2c(c1)CCC2` was tested. Which AC50 did it give?
A: > 21 µM (inactive)

Q: Which AC50 does the source give for `O=S1(=O)C=C(Sc2nnc(-c3ccccc3)o2)c2ccccc21` here?
A: 1.47 µM

Q: For `Cc1cccc(N2C(=O)/C(=C/c3cccnc3)SC2=S)c1`, which AC50 is on record?
A: > 42 µM (inactive)

Q: Which AC50 does the source give for `Cc1c(C(=O)NC(C)C)oc2c1-c1[nH]ncc1CC2` here?
A: > 42 µM (inactive)

Q: `COc1ccc(NC(=O)C2CCCN2S(=O)(=O)c2cccc3cccnc23)cc1OC` (stereo not given) was tested. Which AC50 did it give?
A: > 42 µM (inactive)

Q: How did the AC50 turn out when `COc1ccc(C(=O)NC(=S)Nc2ccc(CN3CCCCC3)cc2)cc1Cl` was run?
A: > 42 µM (inactive)

Q: With `CC(C)Sc1ccc(C(=O)Nc2ccc(F)cc2F)cn1` as the compound, how does the AC50 read?
A: > 42 µM (inactive)

Q: With `CC(=O)Nc1ccc(-c2csc(NC(=O)C3CC(=O)N(c4ccc5c(c4)OCCO5)C3)n2)cc1` (stereo not given) as the compound, how does the AC50 read?
A: > 42 µM (inactive)

Q: With `CCOC(=O)C1CCN(CC(O)COc2ccc(C(C)(C)C)cc2)CC1` (stereo not given) as the compound, how does the AC50 read?
A: > 42 µM (inactive)

Q: Which AC50 does the source give for `COc1ccc(CN2C(=O)c3c(c(C)n(C)c3C)C2C(=O)NC2CCC(C)CC2)cc1` (stereo not given) here?
A: > 21 µM (inactive)

Q: With `CC(=O)OCC(OC(C)=O)C(OC(C)=O)C(OC(C)=O)C(=O)Nc1ccccc1` (stereo not given) as the compound, how does the AC50 read?
A: > 42 µM (inactive)

Q: With `NC(=O)c1cc(S(=O)(=O)N2CCCC2)ccc1OCc1ccc(F)cc1` as the compound, how does the AC50 read?
A: > 42 µM (inactive)

Q: For `O=C1CCc2cc(S(=O)(=O)N3CCC(C(=O)NC4CCCC4)CC3)ccc2N1`, which AC50 is on record?
A: > 42 µM (inactive)

Q: How did the AC50 turn out when `O=c1cnc2cc([N+](=O)[O-])ccc2[nH]1` was run?
A: > 42 µM (inactive)

Q: With `CCc1nn(C)c(N)c1C` as the compound, how does the AC50 read?
A: > 42 µM (inactive)

Q: Which AC50 does the source give for `COCCn1c(SCC(=O)Nc2nc3ccccc3s2)nnc1-c1ccoc1C` here?
A: > 42 µM (inactive)

Q: With `O=C(CSc1nnc(CNC(=O)c2ccccc2F)o1)NCCc1ccccc1` as the compound, how does the AC50 read?
A: > 42 µM (inactive)

Q: How did the AC50 turn out when `Cc1ccc(/C=N/NC(=O)NC23CC4CC(CC(C4)C2)C3)o1` was run?
A: > 42 µM (inactive)

Q: With `O=C1NC(Cc2c[nH]c3ccccc23)C(=O)N1Cc1ccc(CN2C(=O)NC(Cc3c[nH]c4ccccc34)C2=O)cc1` (stereo not given) as the compound, how does the AC50 read?
A: > 42 µM (inactive)

Q: `CC1(OC(=O)CCc2ccccc2)C(=O)C=C2C=C(c3ccc(C#N)cc3)N(CC3CC3)C=C2C1=O` (stereo not given) was tested. Which AC50 did it give?
A: > 42 µM (inactive)

Q: For `Clc1ccc(CN(Cc2ccccc2)C(c2cccs2)c2nnnn2C2CCCC2)cc1` (stereo not given), which AC50 is on record?
A: > 42 µM (inactive)

Q: Which AC50 does the source give for `COc1ccc(C(=O)O/N=C(\N)c2ccccc2)cc1OC` here?
A: > 42 µM (inactive)

Q: Which AC50 does the source give for `CC(=O)CSc1ncnc2sc3c(c12)CCCC3` here?
A: > 42 µM (inactive)

Q: For `COc1ccc(OC)c(NC(=O)CN(C)S(=O)(=O)c2ccc(Cl)cc2)c1`, which AC50 is on record?
A: > 42 µM (inactive)

Q: How did the AC50 turn out when `CCC(C(=O)Nc1cccnc1)c1ccccc1` (stereo not given) was run?
A: > 42 µM (inactive)

Q: With `COC(=O)c1ccc(SCC(=O)N2CCC(C)CC2)c([N+](=O)[O-])c1` as the compound, how does the AC50 read?
A: > 42 µM (inactive)

Q: How did the AC50 turn out when `C=CCn1c(=N)c(C(=O)NCCCOC)cc2c(=O)n3ccccc3nc21` was run?
A: > 42 µM (inactive)

Q: `O=C(N/N=C/c1ccc(Cl)s1)c1ccccc1[N+](=O)[O-]` was tested. Which AC50 did it give?
A: > 42 µM (inactive)

Q: How did the AC50 turn out when `COCCNC(=O)C(=O)N/N=C(\C)CC(=O)Nc1cccc(C(F)(F)F)c1` was run?
A: > 42 µM (inactive)

Q: With `Cc1nc2nc[nH]n2c(=O)c1NS(=O)(=O)c1ccc([N+](=O)[O-])cc1` as the compound, how does the AC50 read?
A: > 42 µM (inactive)

Q: How did the AC50 turn out when `Cc1ccc2c(c1)C(=O)N1[C@H]3c4ccccc4OC[C@@H]3[C@H](c3ccccc3)[C@]1(C)C(=O)N2` was run?
A: 0.86 µM

Q: `Cc1ccc(N/C=C(\C#N)c2ccc(OCCCF)cc2)cc1` was tested. Which AC50 did it give?
A: > 42 µM (inactive)

Q: Which AC50 does the source give for `C[N+](C)(C)CC(=O)Nc1ccc(Cl)cc1C(=O)c1ccccc1` here?
A: > 42 µM (inactive)

Q: With `CCCCC(=O)N/N=C(\C)CC(=O)Nc1cc(Cl)ccc1OC` as the compound, how does the AC50 read?
A: > 42 µM (inactive)

Q: With `O=C(Nc1nnc(COc2ccc(F)cc2)s1)c1cccs1` as the compound, how does the AC50 read?
A: > 42 µM (inactive)

Q: Which AC50 does the source give for `O=C(CN1c2ccccc2Sc2ccccc21)N/N=C/c1ccc(Cl)cc1Cl` here?
A: > 21 µM (inactive)

Q: With `CN(C)C(=O)CN1C(=O)c2cccc3cccc1c23` as the compound, how does the AC50 read?
A: > 42 µM (inactive)

Q: Which AC50 does the source give for `CC(C)[N+]1(C)[C@@H]2CC[C@@H]1CC(OC(=O)C(CO)c1ccccc1)C2` (stereo not given in full) here?
A: > 42 µM (inactive)

Q: How did the AC50 turn out when `Cc1ccc(-c2cc(C(=O)O)c3ccccc3n2)s1` was run?
A: > 42 µM (inactive)

Q: For `CCC(=O)Nc1ccc(S(=O)(=O)NCc2ccco2)cc1`, which AC50 is on record?
A: > 42 µM (inactive)

Q: With `Cc1cc(C)cc(N(CC(=O)Nc2cccc(C)n2)S(=O)(=O)c2c(C)noc2C)c1` as the compound, how does the AC50 read?
A: > 42 µM (inactive)

Q: Which AC50 does the source give for `Cn1c(Cn2nnc3ccccc32)nnc1SCC(=O)c1ccc(F)cc1` here?
A: > 42 µM (inactive)

Q: With `Cc1ccc(NC(=O)CN2CCN(CCN=CC3=C(O)CC(C)(C)CC3=O)CC2)cc1` as the compound, how does the AC50 read?
A: > 42 µM (inactive)

Q: `CC(=O)Oc1cccc(N2C(=O)c3ccc(C(=O)Nc4c[nH]c(=O)[nH]c4=O)cc3C2=O)c1` was tested. Which AC50 did it give?
A: > 42 µM (inactive)

Q: For `Cc1ccc(CNC(=O)c2ccc(N3CCC4(CC3)CC(c3ccccc3)=NO4)c(NC(=O)c3cccc(C)c3)c2)cc1`, which AC50 is on record?
A: > 42 µM (inactive)

Q: `CCCc1nn2c(=O)cc(CSCC(=O)Nc3ccc(OC)cc3)nc2s1` was tested. Which AC50 did it give?
A: > 42 µM (inactive)
